The subject of experiment [1] is EFS-induced isolated detrusor muscle contractions. In words: EFS-induced contraction of isolated rat detrusor muscle strips, with isobologram analysis. The conditions noted are these: single compound, rat bladder strips, EFS. The arrangement: species or system Sprague-Dawley rats. The procedure: Male adult Sprague-Dawley rats were used. After euthanizing using CO2 gas, a whole bladder was removed. Longitudinal strips (about 6 mm×3 mm) of the extratrigonal portion of the detrusor muscle were prepared. […] The strips were tied at one end to the organ bath, and connected at the other end to an isometric transducer (AD Instruments) under a resting tension of 10 mN. The responses of the preparations were recorded at a sampling rate of 10 Hz by a multiple channel data acquisition system (PowerLab, AD Instruments), and measured with an analysis software (Chart, AD Instruments). After the equilibration period for at least 60 min, each tissue strip was challenged to electrical field stimulation (EFS) at 60 Hz; duration, 0.3 ms; 3 sec; 90 V to induce contractions. Upon obtaining stable contractions with EFS, compound solution (25 μL) was applied into organ bath in a cumulative manner. After 15 min of each compound treatment, EFS was applied.
Isobologram Analysis was used to evaluate the synergic effect of a combination therapy. Isobologram Analysis provides a visual assessment of the interaction of two different agents using independent statistical analysis. The statistical analysis can be accomplished from calculations of certain potency indices from single treatment of each compound and fixed-ratio combinations for the same effect.
Isobologram for some particular effect (e.g., 50% of the maximum) in which the dose of active agent A alone is A=20 and active agent B alone is B=100. The straight line connecting these intercept points (additivity line) is the locus of all dose pairs that, based on these potencies, should give the same effect, An actual dose pair such as point Q attains this effect with lesser quantities and is synergistic (or super-additive), while the dose pair denoted by point R means greater quantities are required and is therefore sub-additive.

Experiment [2] has as its system distention-induced rhythmic bladder contraction. In words: Distention-induced rhythmic bladder contraction in anesthetized female rats. It is filed as in vivo, SD rats. The conditions noted are these: iv, single dosing, urethane-anesthetized female rats. How it is done:
• OXY, 0.01, 0.03, 0.1 mg/kg, iv; […].
Next, combination dosing regimens shown below in Table 7 were conducted to compose an isobologram. There were 9 groups in total. ID20 values of OXY and CL was calculated in each combination rate.

For experiment [3], the target named is T1, muscarinic receptor M1 (Homo sapiens, UniProt P11229).
T1 sequence (P11229 1-460): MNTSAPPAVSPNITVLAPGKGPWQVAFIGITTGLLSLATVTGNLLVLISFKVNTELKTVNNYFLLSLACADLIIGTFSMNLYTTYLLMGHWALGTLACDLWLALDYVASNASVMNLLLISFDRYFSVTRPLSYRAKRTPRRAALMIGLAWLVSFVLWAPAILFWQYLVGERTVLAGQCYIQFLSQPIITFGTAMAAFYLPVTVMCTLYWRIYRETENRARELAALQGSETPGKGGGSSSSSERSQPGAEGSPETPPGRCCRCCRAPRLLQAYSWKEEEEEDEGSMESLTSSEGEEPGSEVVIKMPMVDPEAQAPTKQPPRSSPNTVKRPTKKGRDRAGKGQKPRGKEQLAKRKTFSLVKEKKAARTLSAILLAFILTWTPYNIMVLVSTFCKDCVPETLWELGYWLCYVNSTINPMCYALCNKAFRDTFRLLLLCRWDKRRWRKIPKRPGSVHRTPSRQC
The conditions noted are these: read-out: Ki (nM) M1, cited from earlier work.

Experiment [4] deals with T2, muscarinic receptor M2 (Homo sapiens, UniProt P08172).
T2 sequence (P08172 1-466): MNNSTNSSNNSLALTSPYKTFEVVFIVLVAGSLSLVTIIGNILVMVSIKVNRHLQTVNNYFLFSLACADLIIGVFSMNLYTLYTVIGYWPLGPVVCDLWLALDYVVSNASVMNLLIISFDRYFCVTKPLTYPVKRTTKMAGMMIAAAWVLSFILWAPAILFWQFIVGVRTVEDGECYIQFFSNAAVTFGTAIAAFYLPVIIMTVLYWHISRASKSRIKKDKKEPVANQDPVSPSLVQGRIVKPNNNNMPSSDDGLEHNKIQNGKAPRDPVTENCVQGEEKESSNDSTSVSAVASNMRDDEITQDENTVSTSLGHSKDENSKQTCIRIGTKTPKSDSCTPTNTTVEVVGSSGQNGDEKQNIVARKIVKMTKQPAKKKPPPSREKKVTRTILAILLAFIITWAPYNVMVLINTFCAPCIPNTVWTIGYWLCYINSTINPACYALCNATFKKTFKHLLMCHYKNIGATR
The conditions noted are these: Ohtake et al.; cited from earlier work.

In experiment [5] the target is T3, muscarinic receptor M3 (Homo sapiens, UniProt P20309). The conditions noted are these: cited from earlier work.
T3 sequence (P20309 whole entry): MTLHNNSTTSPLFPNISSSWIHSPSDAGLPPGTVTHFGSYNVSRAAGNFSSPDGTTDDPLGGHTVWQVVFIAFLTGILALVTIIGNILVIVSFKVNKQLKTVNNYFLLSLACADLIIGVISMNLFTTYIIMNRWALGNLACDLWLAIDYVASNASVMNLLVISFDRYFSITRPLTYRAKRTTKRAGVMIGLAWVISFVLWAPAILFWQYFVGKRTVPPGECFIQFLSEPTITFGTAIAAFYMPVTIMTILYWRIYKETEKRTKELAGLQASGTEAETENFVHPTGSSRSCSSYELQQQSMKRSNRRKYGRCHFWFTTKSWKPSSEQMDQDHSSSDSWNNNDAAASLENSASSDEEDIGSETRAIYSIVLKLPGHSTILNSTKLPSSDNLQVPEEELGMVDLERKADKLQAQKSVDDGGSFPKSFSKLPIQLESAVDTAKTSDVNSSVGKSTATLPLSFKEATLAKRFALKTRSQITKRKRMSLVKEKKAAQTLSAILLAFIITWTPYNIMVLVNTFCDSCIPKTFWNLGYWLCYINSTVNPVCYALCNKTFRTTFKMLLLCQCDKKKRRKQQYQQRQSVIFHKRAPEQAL
A further experiment has as its target T4, muscarinic receptor M4 (Homo sapiens, UniProt P08173).
T4 sequence (P08173 1-479): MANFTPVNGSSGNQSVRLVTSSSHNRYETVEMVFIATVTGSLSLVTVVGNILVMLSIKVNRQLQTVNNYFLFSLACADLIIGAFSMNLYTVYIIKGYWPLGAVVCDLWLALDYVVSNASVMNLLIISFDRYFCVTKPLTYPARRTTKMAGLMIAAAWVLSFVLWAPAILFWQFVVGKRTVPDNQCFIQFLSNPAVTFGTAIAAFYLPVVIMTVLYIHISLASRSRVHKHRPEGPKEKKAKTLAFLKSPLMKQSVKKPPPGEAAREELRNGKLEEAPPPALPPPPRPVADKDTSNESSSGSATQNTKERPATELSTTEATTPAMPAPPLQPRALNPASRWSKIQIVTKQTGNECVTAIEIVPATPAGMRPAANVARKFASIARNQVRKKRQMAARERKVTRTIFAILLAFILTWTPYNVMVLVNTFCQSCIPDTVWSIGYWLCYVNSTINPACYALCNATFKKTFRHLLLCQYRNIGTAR
The following applies: Ohtake et al.; cited from earlier work.

The subject of the next experiment is bladder capacity. In words: Bladder capacity (cystometry) in anesthetized rhesus monkeys. It is filed as in vivo, rhesus monkeys (Macaca mulatta). The following applies: mean of 4-6 animals. From the text:
Adult female rhesus monkeys (Macaca mulatta) weighed 5.3-6.2 kg (4-7 year-old) were used. The subjects were either paired or individually housed on a 12-h light/12-h dark cycle (lights on at 7:00 AM). Their diet consisted of 2050 Teklad (Harlan Laboratories, Indianapolis, Ind.) and fresh fruit or vegetable. Water was freely available. All animals were observed daily by a veterinary technician and caretakers for signs of ill health. Subjects were repeatedly used with >13-day resting period. Monkeys were anesthetized with an intramuscular injection of either Telazol (3-5 mg/kg) or ketamine (10-20 mg/kg) followed by intravenous constant rate infusion with ketamine (0.2-0,8 mg/kg/min) using a syringe pump (552222, Harvard Apparatus, Holliston, Mass.). Animals were placed in a supine position and a triple lumen balloon transurethral catheter (7.4 Fr, Cook Medical, Bloomington, Ind.) was inserted into the bladder and the balloon was inflated with 1 mL of water to secure the tip of catheter at the bladder base. The catheter was connected with an infusion pump (Gemini PC-2TX, ALARIS Medical Systems, San Diego, Calif.) for bladder filling and a pressure transducer for intravesical pressure monitoring. Intravesical pressure was continuously recorded using a multiple channel data acquisition system (Power lab, AD Instruments, Biopac systems, Colorado Springs, Colo.) at a sampling rate of 20 Hz. After confirming bladder emptiness by an ultrasonography (Logiq e vet, GE Medical Systems, Waukesha, Wis., FIG. 1A), saline was intravesically infused at 15 mL/min. When the steep rise in pressure indicative of the micturition reflex was observed, intravesical infusion was stopped and the bladder was manually emptied with a 60 ml syringe.
After two baseline cystometry readings, drug was intravenously administered three times using a rising dose paradigm with a cystometry performed 10 min after each dose. Bladder capacity was measured for each cystometry and % change from the baseline capacity was calculated. As used herein, the term “baseline capacity” or “baseline” means the average bladder capacity from two pre-dose measurements.
The reported results are mean values of % change from baseline in 4-6 animals.

The target in experiment [6] is T1, muscarinic receptor M1. The conditions noted are these: Hegde et al.; cited from earlier work.
Experiment [7] deals with T2, muscarinic receptor M2. The following applies: Hegde et al.; cited from earlier work.
For experiment [8], the target named is T3, muscarinic receptor M3. The conditions noted are these: Hegde et al.; cited from earlier work.

Read-outs that look alike come from different tables or passages of the source.

What is called Ki is a measure of affinity in units of concentration, obtained from inhibition or displacement.

Turning to `C[C@H](Cc1ccc2c(c1)OC(C(=O)[O-])(C(=O)[O-])O2)NC[C@H](O)c1cccc(Cl)c1.[Na+].[Na+]` [CL316243, disodium (R,R)-5-(2-((2-(3-ehlorophenyl)-2-hydroxyethyl)-amino)propyl)-1,3-benzodioxole-2,3-dicarboxylate], the “IC25 (concentration which induced 25% inhibition of detrusor contraction)” value in experiment [1] is 2.86 nM. The “ID20 (dose decreasing amplitude by 20%)” value in experiment [2] was 0.024 MPK.
In the case of `CCN(CC)CC#CCOC(=O)C(O)(c1ccccc1)C1CCCCC1` (centres unmarked) [Oxybutynin, 4-diethylaminobut-2-ynyl2-cyclohexyl-2-hydroxy-2-phenyl-ethanoate], in [2], the “ID20 (dose decreasing amplitude by 20%)” value was 0.057 MPK.
Consider `CCCOC(C(=O)OC1CCN(C)CC1)(c1ccccc1)c1ccccc1` [Propiverine], for which the Ki at muscarinic receptor M1 [3] (Ohtake et al.) is 490 ± 110 nM; at muscarinic receptor M2 [4] it was 1400 ± 220 nM; at muscarinic receptor M3 [5] (Ohtake et al.), 350 ± 53 nM; on muscarinic receptor M4 it was 900 ± 200 nM. Moreover, at muscarinic receptor M3 [5] (Ohtake et al., ratio of Ki M2 to Ki M3), the M2/M3 ratio is 4.
With `O=C(O[C@H]1CN2CCC1CC2)N1CCc2ccccc2[C@@H]1c1ccccc1` [Solifenacin], the Ki is 26 ± 2 nM on muscarinic receptor M1 [3], 170 ± 37 nM on muscarinic receptor M2 [4], 12 ± 4.4 nM at muscarinic receptor M3 [5] (Ohtake et al.) and 110 ± 45 nM on muscarinic receptor M4. The M2/M3 ratio on muscarinic receptor M3 [5] is 14.
As for `Cc1ccc(O)c([C@@H](CCN(C(C)C)C(C)C)c2ccccc2)c1` [Tolterodine, 2-[(1S)-3-(diisopropylamino)-1-phenylpropyl]-4-methylphenol], the “IC25 (concentration which induced 25% inhibition of detrusor contraction)” value in [1] is 4.71 nM. Also, the “Bladder capacity, % change from baseline” value in the experiment with bladder capacity (mono-therapy 0.01 mg/kg iv, listed as TOL) is on record as 8.6%; in the experiment on bladder capacity (mono-therapy 0.03 mg/kg iv, listed as TOL), 16.8%; in the experiment with bladder capacity (mono-therapy 0.1 mg/kg iv), 40.3%. In addition, the Ki was 2.7 ± 0.23 nM at muscarinic receptor M1 [3] and 6.6 ± 1.7 nM at muscarinic receptor M4.
With `O=C(O[C@H]1C[C@H]2CC[C@@H](C1)[N+]21CCCC1)C(O)(c1ccccc1)c1ccccc1` [Trospium], the Ki on muscarinic receptor M1 [6] was 0.75 nM; on muscarinic receptor M2 [7] it was 0.65 nM; on muscarinic receptor M3 [8], 0.5 nM. In addition, the M2/M3 ratio at muscarinic receptor M3 [8] was 1.

Values taken from patent US20120202819A1, “COMBINATION THERAPY USING A BETA 3 […] RECEPTOR AGONISTS AND AN […] AGENT” (Merck Sharp & Dohme Corporation, priority 2009, published 2012).
